The text below walks through data of US20220323443A1, “COMBINATION THERAPY FOR CANCER TREATMENT” (TAKEDA PHARMACEUTICAL COMPANY LIMITED, priority 2019, published 2022).

Experiment [1] concerns homologous recombination (HR) repair in 293T cells. The experiment is described as follows: Homologous recombination (HR) repair assay, DR-GFP / I-SceI reporter, flow cytometry. The experiment is classed as cell-based, human. As to conditions: 300 nM Compound 1, 72 hours after transfection. How it is done: The efficiency of homologous recombination (HR) was assessed using an I-SceI expression plasmid (I-SceI) and an I-SceI repair reporter plasmid (DR-GFP) composed of two differentially mutated GFP genes, one of which contained a unique I-SceI restriction site (FIG. 1A). The assay works through gene conversion repair of a double strand break caused by I-SceI digestion. DR-GFP plasmids repaired by homologous recombination express GFP. Human embryonic kidney 293T cells were transfected with either 5 μg of DR-GFP plus 10 μg of I-SceI in presence (300 nM) or absence of Compound 1. Seventy-two hours after transfection, the cells were fixed with 4% paraformaldehyde for 20 min at room temperature, and the number of GFP-expressing cells was assessed by flow cytometry (FIGS. 1B and 1C).
In general terms: Flow cytometry measures light scatter and fluorescence of single cells or particles in a stream.

The test system of experiment [2] is COLO205 human colorectal adenocarcinoma xenografts. The experiment is described as follows: In vivo antitumor activity of Compound 1 and irradiation in nude mice. On the set-up: species or system mouse. As to conditions: Compound 1 40 mg/kg orally once daily Day 1-14 combined with irradiation 3 Gy on Day 1, 2, 3, 8, 9, 10. On the procedure: Human colorectal carcinoma cell line, COLO205 xenograft model was established by subcutaneous injection of cell suspension (5×10^6 cells/100 μl/site, in 1:1 mixture of Hanks' balanced salt and BD Matrigel™ Matrix (BD biosciences)). Mice with tumor size of approximately 200 mm^3 were randomly assigned to dose groups on the day before start date of dosing (Day 0). Compound 1 was suspended in 0.5 w/v % methylcellulose and administered orally to mice at a dose of 40 mg/kg once daily on Day 1-14. Mice in irradiation groups were irradiated at a dose of 3 Gy daily on Day 1, 2, 3, 8, 9 and 10 under pentobarbital anesthesia. Tumors on the flanks of the mice were irradiated using an X-ray irradiator (MBR-1520R-3, Hitachi Power Solutions Co., Ltd., Ibaraki) and non-tumor part of mice were shielded by lead plate. Tumor size was measured by caliper and tumor volume was estimated using the equation V=(LW^2)/2, where L and W are tumor length and width, respectively and reported in cubic millimeters (FIG. 3).

For experiment [3], the system named is Twelve cancer cell lines (A549, BxPC3, Calu-1, COLO205, KYSE140, KYSE150, KYSE520, KYSE70, MIA PaCa-2, NCI-H292, PANC1, and RKO). The experiment is described as follows: CRISPR-Cas9 knock-out screening for genes sensitizing to compound 1. As to conditions: hit genes: ES<0 and p-value <0.05, control vs low dose compound 1, in more than three cancer cell lines. The experiment is classed as cell-based.

Experiment [4] has as its system repair of IR-induced DSBs in HeLa cells. The experiment is described as follows: 53BP1 foci assay of irradiation-induced DNA double-strand breaks. The experiment is classed as cell-based, human. On the procedure: Human cervical adenocarcinoma HeLa cells were treated with or without Compound 1 treatment at 300 nM, followed by irradiation (IR) treatment at 4 Gy using an X-ray irradiator (MBR-1520R-3, Hitachi Power Solutions Co., Ltd., Ibaraki). Eight or forty-eight hours after IR treatment, the cells were fixed with 4% paraformaldehyde for the following immunofluorescent experiments. Foci formation of 53BP1 was used as an index of IR-induced DSBs. After permeabilization, the cells were incubated with anti-53BP1 antibody (2 μg/ml) for 60 min at 37° C., and then incubated with Alexa-594-conjugated secondary antibody for 30 min at 37° C. Images were captured with an Axiovert 200M microscope (Carl Zeiss).

Entries after “also recorded” stand apart in the source; their conditions may differ.

Take `Cc1[nH]ncc1-c1cc2nc([C@@H]3CC4CCN3CC4)[nH]c(=O)c2s1` [Compound 1, 2-[(2S)-1-azabicyclo[2.2.2]oct-2-yl]-6-(3-methyl-1H-pyrazol-4-yl)thieno[3,2-d]pyrimidin-4(3H)-one]: in experiment [1], the “HR repair activity (GFP-expressing cells)” value was “suppresses HR repair activity”. The “antitumor activity (tumor volume)” value in experiment [2] is “strong antitumor activity and enhanced antitumor efficacy compared to either single treatment alone”. Further, the “sensitivity of cancer cells with mutation or deletion of at least one sensitizing hit gene” value in experiment [3] was “more sensitive”. Also, the “repair of IR-induced DSBs” value in experiment [4] (300 nM Compound 1 + IR 4 Gy, HeLa cells) is reported as “delays repair of IR-induced DSBs; also recorded: delays repair of irradiation induced double-strand breaks (DSBs)”. Further, in experiment [4] (co-treated with IR 4 Gy and Compound 1 300 nM, 48 h after IR treatment, HeLa), the “53BP1 foci-positive cells (≥10 foci/cell)” value is reported as “still observed with high frequency”.
